These results are taken from US20240197891A1, “PHARMACEUTICAL COMPOSITIONS COMPRISING POH DERIVATIVES” (UNIVERSITY OF SOUTHERN CALIFORNIA, priority 2021, published 2024).

In series [1] the test system is USC-02 glioma cancer stem cells. As to the kind of experiment: MTT cytotoxicity assay, USC-02 glioma cancer stem cells. Type of series: cell-based. To be noted: USC-02; increasing concentrations (TMZ 0-400 uM; POH 0-2 mM). From the text: (§1) Cancer Lett. 2011 Mar. 28; 302(2):100-8.
Background: Tetrazolium assays rely on reduction of a dye to a coloured formazan, in cell work by metabolically active cells.

For series [2], the system named is USC-04 glioma cancer stem cells. As to the kind of experiment: MTT cytotoxicity assay, USC-04 glioma cancer stem cells. To be noted: USC-04; increasing concentrations (TMZ 0-400 uM; POH 0-2 mM). The series is classed as cell-based.
Source text: as §1

Series [3] concerns TMZ sensitive (U251) cells. Kind of series: Colony forming assay, TMZ sensitive U251 cells. The series is classed as cell-based, human. The following applies: TMZ sensitive U251 cells. The method, then: (§2) Colony forming assays were carried out after cells were treated with TMZ alone, POH alone, and the TMZ-POH conjugate. […] Cancer Lett. 2011 Mar. 28; 302(2):100-8.
Series [4] has as its system TMZ resistant (U251TR) U251 cells. As to the kind of experiment: Colony forming assay, TMZ resistant U251TR cells. Type of series: cell-based, human. On the procedure:
as §2

Series [5] relates to follistatin, α6β4 integrin, Yap1. As to the kind of experiment: Staining of the skin for follistatin, α6β4 integrin and Yap1. Type of series: in vivo. From the text: Activins are members of the transforming growth factor-β family of growth and differentiation factors. The biological activity of activins is regulated by the secreted glycoprotein follistatin, which sequesters activins and thus inhibits their biological activities. Follistatin controls keratinocyte proliferation in skin wounds. Most importantly, it has been shown that limited activation of activin in keratinocytes is beneficial for the wound healing process. FIGS. 27A-C show the staining of the skin with activation of follistatin with POH-LA conjugate (FIG. 27A), POH, (FIG. 27B), and Linoleic Acid (FIG. 27C).
FIGS. 27D-F show the staining of the skin with activation of α6β4 integrin with POH-LA conjugate (FIG. 27D), POH, (FIG. 27E), and Linoleic Acid (FIG. 27F).
Yap1 is a critical modulator of epidermal stem cell proliferation and tissue expansion. α-catenin controls Yap1 activity and phosphorylation by modulating its interaction with 14-3-3 and the PP2A phosphatase. This aids in the identification of Yap1 as a determinant of the proliferative capacity of epidermal stem cells and as an important effector of a “crowd control” molecular circuitry in mammalian skin. FIGS. 27G-I show the staining of the skin with activation of Yap1 with POH-LA conjugate (FIG. 27G), POH, (FIG. 27H), and Linoleic Acid (FIG. 27I).

Series [6] relates to skin inflammation induced by asTPA. Kind of series: asTPA-induced skin inflammation in mice. The following applies: topical, 3 days pretreatment plus 7 days asTPA, glycerol:ethanol (90:10). The series is classed as in vivo, mouse. The method, then:
A first group of mice were pre-treated with a solution of 50 microliters (μL) of a conjugate of POH and linoleic acid (e.g., linoleoyl ester of POH) in a vehicle of a glycerol:ethanol (90:10) mixture. The POH-linoleic acid conjugate solution was applied on the hip flank of the mice for a period of 3 days. A second, control group of mice were treated solely with the glycerol:ethanol (90:10) vehicle.
After pre-treatment, skin inflammation was induced on the first and second groups of mice by daily cutaneous application of an acetonic solution of 12-0-Tetradecanoylphorbol-13-acetate (asTPA) (which is a known irritant) to the backs of the mice over seven days. The asTPA was not applied to a further control group. To facilitate application of the asTPA, mice were anaesthetized by inhalation of isofluorane. 100 microliters of asTPA (corresponding to 20 micrograms (μg) of TPA) was then applied onto the skin of the mice. Upon evaporation of the asTPA, the mice were returned to their cages.
During the seven-day period in which the first and second groups of mice were subjected to application of asTPA, the first group continued to receive treatment of the POH-linoleic acid conjugate and vehicle solution, and the second group continued to receive treatment of the vehicle. At the end of the seven-day period, the mice were photographed.

In series [7] the test system is cyclobutane pyrimidine dimers (CPD) and pyrimidine (6-4) pyrimidone photoproducts (6-4PP). As to the kind of experiment: DNA damage (6-4PP and CPD) in UV exposed mouse skin. Type of series: in vivo. The following applies: skin DNA following UV exposure. An excerpt:
FIGS. 26A and 26B show the DNA damage that occurs following UV exposure with and without POH-LA conjugate treatment. Upon euthanasia of animals, skin tissues were collected from the back of the animals, fixed in formalin, and processed for analysis. Absorption of ultraviolet (UV) light produces two predominant types of DNA damage, cyclobutane pyrimidine dimers (CPD) and pyrimidine (6-4) pyrimidone photoproducts (6-4PP). UV DNA Damage standards for comparison to UV exposed mouse skin extracted DNA were used. Both the standard and sample DNA are first heat denatured before they are adsorbed onto a 96-well DNA high-binding plate. The 6-4PP (FIG. 26A) and CPDs (FIG. 26B) present in the sample or standard are probed with an anti6-4PP or CPD antibody, followed by an HRP conjugated secondary antibody. The 6-4PP or CPD content in an unknown sample is determined by comparing with a standard curve that is prepared from predetermined CPD-DNA standards 1,000-1.56 ng/ml). […] The skin has important barrier, sensory, and immune functions, contributing to the health and integrity of the organism. […]
FIGS. 26A and 26B show the DNA damage that occurs following UV exposure with and without POH-LA conjugate treatment. […] The 6-4PP or CPD content in an unknown sample is determined by comparing with a standard curve that is prepared from predetermined CPD-DNA standards 1,000-1.56 ng/ml).

Molecules are shown by their SMILES.

As to `C=C(C)[C@@H]1CC=C(CO)CC1` [POH, perillyl alcohol], the “cytotoxicity (MTT)” value in series [1] and in series [2] was “demonstrated cytotoxicity” in each case. The “cytotoxicity (colony forming assay)” value in series [3] and in series [4] was “demonstrated cytotoxicity” throughout.
As for `C=C(C)[C@@H]1CC=C(COC(=O)CCCCCCC/C=C\C/C=C\CCCCC)CC1` [POH-LA conjugate, Octadeca-9,12-dienoic acid 4-isopropenyl-cyclohex-1-enylmethyl ester], in series [5], the “activation of cellular proteins” value is “enhance the activation of cellular proteins” and the “skin regeneration via stem cell activation” value is recorded as “stimulate skin regeneration via stem cell activation”. For the same compound, the “skin appearance where asTPA was applied” value in series [6] is “no inflammation or flaking”. Further, in series [7], the “DNA damage (6-4PP and CPD content)” value was “less DNA damage”.
